In patent US10208020B2, “Substituted amino triazoles useful as human chitinase inhibitors” (OncoArendi Therapeutics S.A., priority 2015, dated 2019):

Legend:
recombinant human CHIT1 = recombinant human CHIT1 (Homo sapiens (Human), UniProt Q13231); test: Human CHIT1 activity assay; type: biochemical; details: citrate buffer pH 5.2, 37° C., 60 minutes; 4-methylumbelliferyl β-D-N,N′,N″-triacetylchitotriose substrate; read-out: Activity on hCHIT1, IC50
recombinant human AMCase = recombinant human AMCase (Homo sapiens (Human), UniProt Q9BZP6); test: Human AMCase activity assay; type: biochemical; details: citrate buffer pH 5.2, 37° C., 60 minutes; 4-methylumbelliferyl B-D-N,N′-diacetylchitobioside substrate; read-out: Activity on hAMCase, IC50
Sequence of recombinant human AMCase (Q9BZP6 22-476): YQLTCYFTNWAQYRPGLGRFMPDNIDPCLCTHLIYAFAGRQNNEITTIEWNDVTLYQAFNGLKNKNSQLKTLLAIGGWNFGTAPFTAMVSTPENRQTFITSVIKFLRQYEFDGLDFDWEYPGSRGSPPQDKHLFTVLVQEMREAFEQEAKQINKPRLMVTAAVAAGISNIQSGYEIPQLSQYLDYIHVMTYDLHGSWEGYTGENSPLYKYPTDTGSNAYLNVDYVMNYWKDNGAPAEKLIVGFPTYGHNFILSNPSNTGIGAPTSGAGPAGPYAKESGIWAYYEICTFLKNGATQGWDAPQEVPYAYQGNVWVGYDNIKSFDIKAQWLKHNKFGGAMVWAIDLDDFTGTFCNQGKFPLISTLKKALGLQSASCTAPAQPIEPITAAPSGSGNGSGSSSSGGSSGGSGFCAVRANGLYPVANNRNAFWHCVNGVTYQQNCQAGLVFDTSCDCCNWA

Sequence of recombinant human CHIT1 (Q13231 22-466): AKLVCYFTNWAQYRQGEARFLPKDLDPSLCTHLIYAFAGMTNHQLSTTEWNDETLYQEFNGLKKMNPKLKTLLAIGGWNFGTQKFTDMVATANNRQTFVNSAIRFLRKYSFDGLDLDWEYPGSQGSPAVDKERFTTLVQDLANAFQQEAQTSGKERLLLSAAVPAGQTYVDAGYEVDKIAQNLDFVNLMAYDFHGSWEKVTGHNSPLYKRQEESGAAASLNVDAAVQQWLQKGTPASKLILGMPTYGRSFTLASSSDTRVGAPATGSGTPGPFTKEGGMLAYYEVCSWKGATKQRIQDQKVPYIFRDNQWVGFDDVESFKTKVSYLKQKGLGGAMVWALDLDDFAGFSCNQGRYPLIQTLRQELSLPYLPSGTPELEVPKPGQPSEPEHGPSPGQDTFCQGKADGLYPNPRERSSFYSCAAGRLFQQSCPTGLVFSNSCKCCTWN

SMILES | IC50 (recombinant human CHIT1) | IC50 (recombinant human AMCase)
Nc1nnc(N2CCC(N3CCOC[C@@H]3Cc3ccc(Cl)cc3)CC2)[nH]1 [Example 1, (S)-5-(4-(3-(4-chlorobenzyl)morpholino)piperidin-1-yl)-4H-1,2,4-triazol-3-amine] | < 0.1 µM | 
Nc1nnc(N2CCC(N3CCOC[C@@H]3Cc3ccc(Br)cc3)CC2)[nH]1 [Example 3, (S)-5-(4-(3-(4-bromobenzyl)morpholino)piperidin-1-yl)-4H-1,2,4-triazol-3-amine] | < 0.1 µM | 
CCOC[C@H]1CN(C2CCN(c3nnc(N)[nH]3)CC2)[C@@H](Cc2ccc(Cl)cc2)CO1 [Example 11, 5-(4-((2R,5S)-5-(4-chlorobenzyl)-2-(ethoxymethyl)morpholino)piperidin-1-yl)-4H-1,2,4-triazol-3-amine] |  | < 0.1 µM
COC(C)(C)[C@H]1CN(C2CCN(c3nnc(N)[nH]3)CC2)[C@@H](Cc2ccc(Cl)cc2)CO1 [Example 14, 5-(4-((2R,5S)-5-(4-chlorobenzyl)-2-(2-methoxypropan-2-yl)morpholino)piperidin-1-yl)-4H-1,2,4-triazol-3-amine] | < 0.1 µM | < 0.1 µM
Nc1nnc(N2CCC(N3CCCC[C@@H]3Cc3ccc(Cl)cc3)CC2)[nH]1 [Example 15, (R)-5-(2-(4-chlorobenzyl)-[1,4′-bipiperidin]-1′-yl)-4H-1,2,4-triazol-3-amine] | < 0.1 µM | 
CCOC(=O)C1CC[C@H](Cc2ccc(Cl)cc2)N(C2CCN(c3nnc(N)[nH]3)CC2)C1 (stereo partly drawn) [Example 16, ethyl (6R)-1′-(5-amino-4H-1,2,4-triazol-3-yl)-6-(4-chlorobenzyl)-[1,4′-bipiperidine]-3-carboxylate] | < 0.1 µM | 
Nc1nnc(N2CCC(N3CC(C(=O)O)CC[C@@H]3Cc3ccc(Cl)cc3)CC2)[nH]1 (stereo partly drawn) [Example 17, (6R)-1′-(5-amino-4H-1,2,4-triazol-3-yl)-6-(4-chlorobenzyl)-[1,4′-bipiperidine]-3-carboxylic acid] | 0.1 to 1 µM | 
CC1(C(=O)O)CC[C@H](Cc2ccc(Cl)cc2)N(C2CCN(c3nnc(N)[nH]3)CC2)C1 (stereo partly drawn) [Example 18, (6R)-1′-(5-amino-4H-1,2,4-triazol-3-yl)-6-(4-chlorobenzyl)-3-methyl-[1,4′-bipiperidine]-3-carboxylic acid] | 1 to 10 µM | 
Cc1ccc(S(=O)(=O)N2CCN(C3CCN(c4nnc(N)[nH]4)CC3)[C@@H](Cc3ccc(Cl)cc3)C2)cc1 [Example 35, (S)-5-(4-(2-(4-chlorobenzyl)-4-tosylpiperazin-1-yl)piperidin-1-yl)-4H-1,2,4-triazol-3-amine] | 10 to 100 µM | 
C[C@H]1CN(C2CCN(c3nnc(N)[nH]3)CC2)[C@@H](Cc2ccc(Cl)cc2)CN1S(C)(=O)=O [Example 37, 5-(4-((2S,5S)-2-(4-chlorobenzyl)-5-methyl-4-(methylsulfonyl)piperazin-1-yl)piperidin-1-yl)-4H-1,2,4-triazol-3-amine] | 10 to 100 µM | 
COC(=O)N1C[C@H](Cc2ccc(Cl)cc2)N(C2CCN(c3nnc(N)[nH]3)CC2)C[C@@H]1C [Example 39, methyl (2S,5S)-4-(1-(5-amino-4H-1,2,4-triazol-3-yl)piperidin-4-yl)-5-(4-chlorobenzyl)-2-methylpiperazine-1-carboxylate] | 10 to 100 µM | 
COC(=O)CN1C[C@H](Cc2ccc(Cl)cc2)N(C2CCN(c3nnc(N)[nH]3)CC2)C[C@@H]1C [Example 40, methyl 2-((2S,5S)-4-(1-(5-amino-4H-1,2,4-triazol-3-yl)piperidin-4-yl)-5-(4-chlorobenzyl)-2-methylpiperazin-1-yl)acetate] | 0.1 to 1 µM | < 0.1 µM
C[C@H]1CN(C2CCN(c3nnc(N)[nH]3)CC2)[C@@H](Cc2ccc(Cl)cc2)CN1CC(=O)O [Example 41, 2-((2S,5S)-4-(1-(5-amino-4H-1,2,4-triazol-3-yl)piperidin-4-yl)-5-(4-chlorobenzyl)-2-methylpiperazin-1-yl)acetic acid] | 0.1 to 1 µM | < 0.1 µM
Nc1nnc(N2CCC(N3C[C@@H]4CCCN4C[C@@H]3Cc3ccc(Cl)cc3)CC2)[nH]1 [Example 49, 5-(4-((3S,8aS)-3-(4-chlorobenzyl)hexahydropyrrolo[1,2-a]pyrazin-2(1H)-yl)piperidin-1-yl)-4H-1,2,4-triazol-3-amine] | 1 to 10 µM | < 0.1 µM
C[C@H]1CN(C2CCN(c3nnc(N)[nH]3)CC2)[C@@H](Cc2ccc(Cl)cc2)C(C)(C)O1 [Example 53, 5-(4-((3S,6S)-3-(4-chlorobenzyl)-2,2,6-trimethylmorpholino)piperidin-1-yl)-4H-1,2,4-triazol-3-amine] | 10 to 100 µM | 
